Measurements as given in patent publication US20200323219A1, “BIOLOGICAL FUNGICIDE COMPOSED BY PLANT EXTRACTS” (JH Biotech Inc., priority 2019, published 2020).

Legend:
[1] = tested on: Magnaporthe grisea (teleomorph: Pyricularia oryzae); conditions: 1000 ppm; cited from earlier work
[2] = tested on: Alternaria brassicicola; conditions: cited from earlier work
[3] = tested on: Xanthomonas euvesicatoria; conditions: cited from earlier work
[4] = tested on: Acidovorax citrulli; conditions: cited from earlier work
[5] = tested on: Ralstonia solanacearum; conditions: cited from earlier work
[6] = tested on: Alternaria brassicicola; experiment: Conidial germination of Alternaria brassicicola on slides in a moist chamber; assay type: cell-based; conditions: 24 hours; for Conidial germination rate (%) in different diluted condition 1000X: diluted 1000 times; for Conidial germination rate (%) in different diluted condition 1500X: diluted 1500 times; for Conidial germination rate (%) in different diluted condition 2000X: diluted 2000 times
Experimental: The tables differ only in how the gallnut and myrobalan are presented. For Table 1-1, gallnut and myrobalan are presented in vol % as described earlier for the Row 6 procedure while Table 1-2 presents the active ingredients of gallnut and myrobalan as concentration (grams/ml). One drop of 20 μl of pathogen conidia suspension (100 conidia per microliter) was mixed with one drop of 20 μl for each of the eight combinations of gallnut and myrobalan formulations, and at dilutions of 750 times, 1000 times, and 1500 times. Each combination was placed on test slides that were maintained at 100% relative humidity at room temperature. The germination rate of 100 conidia on each slide was calculated visually using a microscope following an incubation period of 24 hours. Tables 2-1 and 2-2 show the same plant extract formulations as in Table 1 but including the addition of a surfactant; specifically, either yucca plant extract (Yucca […]) or sodium lauryl sulfate (SLS). Each was added for testing conidial germinations of Alternaria brassicicola. Dilutions were at 1000 times, 1500 times and 2000 times water. 10 vol % of yucca extract or 5 wt. % of SLS was added to the formulations and then used to test the inhibitory effects on conidial germination on the same fungal pathogen Alternaria brassicicola.

[7] = Table 2-2, with surfactant (gms/ml per 100 ml)

| SMILES | conidial germination [1] | intrusive behavior of the germinated conidia [1] | inhibition of conidial germination [2] | kill or inhibit the pathogen [3] | kill or inhibit the pathogen [4] | kill or inhibit the pathogen [5] | Conidial germination rate (%) in different diluted condition 1000X ([6]; Table 2-1, with surfactant) [%] | Conidial germination rate (%) in different diluted condition 1500X ([6]; Table 2-1, with surfactant) [%] | Conidial germination rate (%) in different diluted condition 2000X ([6]; Table 2-1, with surfactant) [%] | Conidial germination rate (%) in different diluted condition 1000X [6, 7] [%] | Conidial germination rate (%) in different diluted condition 1500X [6, 7] [%] | Conidial germination rate (%) in different diluted condition 2000X [6, 7] [%] |
| --- | --- | --- | --- | --- | --- | --- | --- | --- | --- | --- | --- | --- |
| O=C(O)c1cc(O)c(O)c(O)c1 [gallic acid, 3,4,5-trihydroxybenzoic acid] | stop | stop | effectively inhibit | – | – | – | – | – | – | – | – | – |
| COC(=O)c1cc(O)c(O)c(O)c1 [methyl gallate] | stop | stop | – | kill or inhibit | kill or inhibit | kill or inhibit | – | – | – | – | – | – |
| CCCCCCCCCCCCOS(=O)(=O)[O-].[Na+] [sodium lauryl sulfate] | – | – | – | – | – | – | 55 | 90 | 94 | 55 | 90 | 94 |
